Source: US20100087499A1, “PHARMACEUTICAL COMPOSITIONS AND METHODS OF USING TEMOZOLOMIDE AND MULTI-TARGETED KINASE INHIBITORS” (SCHERING CORPORATION, priority 2007, published 2010)

System: U87MG glioblastoma xenograft
Assay: U87MG glioblastoma xenograft tumor growth in nude mice
Assay type: in vivo
Procedure: The following human glioblastoma xenograft model may be employed to ascertain the efficacy of the formulations and methods described herein. Human glioblastoma cell U87MG are inoculated subcutaneously into female nude mice (age 4-6 wks). Xenograft tumor growth is followed by measuring the tumor size using a caliper. Once tumor size reaches about 100 mm^3 (average), mice carrying the xenograft tumors are grouped and treated with different doses of the combination of TMZ and a multi-targeted kinase inhibitor. Likewise, human glioblastoma cell U373 may be used to establish a xenograft model.
The combination of TMZ and a multi-targeted kinase inhibitor (e.g., sunitinib) for treating a cell proliferative disorder was examined using a human glioblastoma xenograft model. In particular, the glioblastoma model U87MG was used to evaluate the efficacy of multi-targeted kinase inhibitor sunitinib as a single agent compared to TMZ (Temozolomide, Temodar®), a chemotherapeutic drug clinically approved for treating brain tumor, as a single agent. In addition, this study looked at the efficacy of the combination of TMZ with sunitinib in comparison to the efficacy with either agent alone.
In brief, nude mice were inoculated with U87-MG glioblastoma cells and the resultant tumors treated with control, or various concentrations of TMZ, sunitinib, or a combination of both TMZ and sunitinib. More specifically, female nude mice (strain NU/NU), aged 6-8 weeks old were purchased from Charles River Laboratory. Five million glioblastoma U87-MG were mixed 1:1 (volume:volume) with Matrigel (Cat. # 354234, BD Biosciences) on ice and mixtures were inoculated subcutaneously to the flank of each mouse. Dosing was initiated on day 8 after inoculation when the tumor size was approximately 100 mm^3. TMZ was administered qd, ip for five consecutive days. Sunitinib was administered qd, po for 9-12 days consecutive days (until the end of the studies). The dosing volume was approximately 0.1 ml. Tumor size and body weight was measured two to three times per week.
There were 10 nude mice per dosing regimen.

Row | SMILES | inhibition of tumor growth (Day 17 post inoculation (day 9 post dosing initiation), TMZ alone 20 mpk qd ip x5 days, Table 1 / FIG. 2) | inhibition of tumor growth (Day 17 post inoculation, TMZ alone 30 mpk (so in the source) qd ip x5 days, Table 1 / FIG. 2) | inhibition of tumor growth (Day 17 post inoculation, TMZ alone 40 mpk (so in the source) qd ip x5 days, Table 1 / FIG. 2) | inhibition of tumor growth (Day 20 post inoculation (day 12 post dosing initiation), TMZ alone 5 mpk qd ip x5 days, Table 2 / FIG. 4) | inhibition of tumor growth (Day 20 post inoculation, TMZ alone 20 mpk qd ip x5 days, Table 2 / FIG. 4) | inhibition of tumor growth (Day 17 post inoculation, sunitinib alone 40 mpk qd po, Table 1 / FIG. 2) | inhibition of tumor growth (Day 17 post inoculation, sunitinib alone 80 mpk qd po, Table 1 / FIG. 2) | inhibition of tumor growth (Day 20 post inoculation, sunitinib alone 40 mpk qd po, Table 2 / FIG. 4) | inhibition of tumor growth (Day 20 post inoculation, sunitinib alone 80 mpk qd po, Table 2 / FIG. 4)
1 | Cn1nnc2c(C(N)=O)ncn2c1=O [TMZ, 3,4-dihydro-3-methyl-4-oxoimidazo[5,1-d]-as-tetazine-8-carboxamide] | 96% | 96% | 98% | 95% | 102% |  |  |  | 
2 | CCN(CC)CCNC(=O)c1c(C)[nH]c(/C=C2\C(=O)Nc3ccc(F)cc32)c1C [sunitinib] |  |  |  |  |  | 56% | 82% | 76% | 83%
